Several values for one entry are separate records, joined by “and”; a condition that tells them apart may be missing. Identical values can stand only once.

For data set [1] the following is noted: intact RWM, cited from earlier work.
Data set [2] is described as follows: Permeability of one pore estimated from diffusion coefficient and membrane thickness (P=D/h); 1% area perforation improvement. The settings on record: for Ppore: D/h, membrane thickness 10 μm, guinea pig. From the text: From Fick's first law, diffusion is described by J=−D∇ϕ (1) where J is diffusion flux in mol/m^2*s, D is the diffusion coefficient in m^2/s, and ϕ is the concentration in mol/l. Then from a one-dimensional simplification of the pore
[formula] This can be further simplified with the gradient is uniform across the pore to obtain
[formula] where x is the axis through the pore in m, cx is the concentration at both ends in mol/l, and h is the RWM thickness in m. Then from the definition of flux
[formula] the permeability of the membrane is Flux=−PA(c1−c0) (5) where P=D/h is the permeability in m/s.
Thus the permeability of one pore can be estimated from the diffusion coefficient and the thickness of the membrane (10 μm, guinea pig).

For data set [3] the following is noted: cited from earlier work; for D: diffusion coefficient.
A short description of data set [4]: Diffusion of 1 mM Rhodamine B across RWM in static Franz diffusion cells, with and without 12.5 μm microperforation. It counts as in vitro ADME, guinea pig. Conditions: for time to reach 10 μM: expected. The protocol:
The diffusion across guinea pig RWM, with and without microperforation, was developed and tested: cochleae, sparing the RWM, were embedded in 3D-printed acrylic holders using hybrid dental composite and light cured to adapt the round window niche to 3 ml Franz diffusion cells. Perforations were created with 12.5 μm diameter needles and examined with light microscopy. Diffusion of 1 mM Rhodamine B across RWM in static diffusion cells was measured via fluorescence microscopy.
In order to carry out this analysis, diffusion of RhoB through the RWM was performed on 12 Hartley Strain Guinea Pigs in a modified diffusion cell at room temperature. Franz™ Cell-type diffusion cells (PermeGear, Inc., Hellertown, Pa.) are made of borosilicate glass and have a 5 mm orifice and a 3 ml receptor volume with flat ground joints (FIG. 30). The cell consists of three parts (FIG. 33): donor chamber, membrane, and receptor chamber.
The donor chamber was filled with 0.3 ml of 1 mM RhoB in PBS meeting the conditions for continuous infinite dosing. Donor chamber was covered with Parafilm® for the duration of the experiment. Drug application surface was determined by size of RWM.
Guinea pig RWM was embedded in an acrylic holder with dental composites (FIG. 34). The acrylic holder was designed and 3D printed (Objet 24, Stratasys, MN) to allow for adaptation of the round window niche containing RWM to the diffusion cell. Dental composites (Dentsply, Milford, Del.) included primer (Prime & Bond® NT™) and a urethane modified Bis-GMA resin (TPH Spectra™) which were light cured at 20 s intervals with a 470 nm light emitting diode greater than 500 mW/cm^2. The diffusion cell was assembled with two custom expanded Polytetraflurane (PTFE) gaskets, 1.5 mm thick, to prevent leakage from the donor or receptor chambers at the diffusion cell/membrane interface. The acrylic holder was tested for reactivity with RhoB and was inert for >48 hours. The RWM was equilibrated in PBS solution for 30 minutes prior to application of RhoB. Membranes were embedded and equilibrated within 2 hours of euthanasia.
Microperforations were introduced in the RWM with manual application of a minutien insect pin (Size 000, 12.5 μm diameter tip, 250 μm diameter shaft) under a binocular microscope. All membranes were imaged before and after diffusion study using bright field, phase contrast or fluorescent microscopy and Z-stacking. Imaging was used to confirm the presence or absence of membrane perforation. 60 images at […] intervals were taken and compiled to create one image. ImageJ (Rasband, W. S., Image J, U.S. National Institutes of Health, Bethesda, Md.) was used to calculate the size of the membrane and, if present, perforation.
The receptor chamber was filled with 3 ml of PBS and continuously stirred at 650 rpm with a cylindrical Teflon® magnetic stirbar to allow rapid mixing of contents without development of a vortex. Sampling port allowed for extraction of fluid samples at various time points to monitor progression of diffusion. The set up and sampling conditions were validated for consistency in the following categories: 1) diffusion cell dimensions, 2) stir bar speed, and 3) sampling frequency, to increase the precision of results across experiments^23.
Sampling of the receiver chamber was made at 12 predetermined times over 24 hours and analyzed with fluorescent microscopy. At each time point 90 μL was removed using a stretched syringe from the center of the receptor chamber and the volume was replaced with 90 μL of fresh PBS. These diffusion experiments are considered static as solution from the receptor chamber is renewed by removal of a set quantity (90 μL) at sampling times and replacement of this volume with fresh medium. The removed 90 μL was then diluted with 360 μL PBS to reduce the effects of evaporation and maintain concentrations within the acceptable detection range of the microscope. The samples were placed on a tilt table to enhance mixing after dilution. […]

Data set [5] in a line: Diffusion of 500 μM rhodamine B across RWM in Franz Cell, with and without manual perforation (10 μm / 100 μm needle). The class given is in vitro ADME, guinea pig. As for the experimental part:
In another embodiment, a model for measuring diffusion across a guinea pig RWM, was developed and tested. The model is applicable for analysis of the RWM both with and without microperforations. Semicircular canals were removed from the pigs and RWM exposed prior to perforation. In the exemplary embodiment, the cochlea, sparing the RWM, was embedded in a 3D-printed acrylic holder using hybrid dental composite and light cured to adapt the round window niche to a 3 ml Franz™ Cell. The Franz™ Cell is a widely recognized standardized method for studying transdermal drug delivery. Microperforations were created with a 10 μm diameter needle (as shown in FIG. 32) and examined with fluorescent light microscopy (FSX-100, as shown in FIG. 31) as a function of time exposure.
In the exemplary embodiment show in FIGS. 33-34, a Franz Cell was customized in accordance with the present disclosure to include an adapter to allow analysis of a very small membrane in the Franz Cell. The adaptor depicted in FIGS. 33B and 34 was manufactured with a 3-dimensional printer, though alternative manufacturing techniques (and suitable materials) are contemplated to be within the scope of the disclosure. The adaptor includes a downwardly extending protrusion or lip (see reference numerals “A” and “B” in FIG. 33) which are configured to engage the Receptor portion of the Franz Cell.
Similarly, FIGS. 37A-C illustrate various Z-stacked perforation images which were compiled from 60 images taken at 5 μm intervals of RWM with perforation: A) bright field microscopy; B) bright field microscopy post diffusion with RhoB; C) Fluorescent microscopy
Manual perforations made with 10 μm needle tip produce an elliptical hole (see arrow in FIG. 38) with axes 30 μm (26-34)×47 μm (44-50). In one example, a manual perforation with 100 μm needle tip created an elliptical tear in the membrane Measuring […]×460 μm, as shown in FIG. 38 (in which the dot “D” indicates tip size).

Regarding `C[C@@H]1C[C@H]2[C@@H]3CCC4=CC(=O)C=C[C@]4(C)[C@@]3(F)[C@@H](O)C[C@]2(C)[C@@]1(O)C(=O)CO` [Dexamethasone], the PRWM in data set [1] is 5.0~35.0 × 10^−8 m/s.
For the compound `CCN(CC)c1ccc2c(-c3ccccc3C(=O)O)c3ccc(=[N+](CC)CC)cc-3oc2c1.[Cl-]` [Rhodamine B], the “predicted value of pore permeability based on the diffusion coefficient” value in data set [2] (not told) was 4×10^−5 m/s. The “Diffusion Coefficient in water at 25° C. (298 K)” value in data set [3] is 4.5 ± 0.4 10^−6 cm^2s^−1 and 4.27 ± 0.04 10^−6 cm^2s^−1. In data set [4], the “Permeability KP RWM” value is reported as 0.51 ± 0.41 10^−8 ms^−1. Besides, the “permeability across the perforation itself” value in data set [4] is listed as 8.3±2.2×10^−5 m/s. Moreover, in data set [4], the “permeability across the perforation relative to intact membrane” value was 16,000 times. Further, in data set [4], the “permeability coefficient of the RWM with microperforations” value is recorded as 18.1±6.1×10^−8 m/s. Further, the “time to reach 10 μM” value is 30 min in data set [4] (3×3 array of perforations) and 90 min in data set [4] (three perforations). Moreover, the “time to diffuse 10 μM across the RWM” value is on record as 7 days in data set [4] (intact membrane) and “under 5 hours” in data set [4] (single microperforation of approximately 2.5×10^−3 mm^2). Besides, in data set [4] (single 12.5 μm tip microperforation, 0.22% of membrane), the “increase in permeability / enhancement in diffusion with microperforation vs intact RWM” value was 35 times. For the same compound, the enhancement in diffusion is reported as 160 × in data set [5] (10 μm needle, 30 × 47 μm perforation) and 3500 × in data set [5] (100 μm needle, 240 × 460 μm elliptical perforation). Further, the “Microperforated KP” value in data set [5] (guinea pig) is 3.21×10^−6 m/s. The “time required to reach 250 μM” value in data set [5] (membranes with a small microperforation) came to 8.5 days; in data set [5] (unperforated membrane, 250 μM = ½ applied concentration) it was 3.7 years.
With Gentamicin, the Ppore in data set [2] is recorded as 6.82 × 10^−5 m/s. In data set [3], the D is reported as 6.82 × 10^−10 m2/s and the “Diffusion Coefficient in water at 25° C. (298 K)” value is given as 6.82 10^−6 cm^2s^−1. The PRWM in data set [1] is listed as 3.5 ± 4.6 × 10^−8 m/s.
Regarding `C[N+](C)(C)c1ccccc1` [TMPA], in data set [2], the Ppore is 1.01 × 10^−4 m/s. Also, the D in data set [3] is on record as 1.01 × 10^−9 m2/s. For the same compound, the “permeability of the RWM” value in data set [1] (guinea pig model) is 1.9×10^−8 m/s. The PRWM in data set [1] is reported as 1.9 × 10^−8 m/s.

The values are drawn from patent US10821276B2, “System and method to locally deliver therapeutic agent to inner ear” (The Trustees of Columbia University in the City of New York, priority 2012, dated 2020).
